Data reported in PubChem BioAssay (NCI).
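Results reflect a 48-hour exposure of cells in 96-well plates to compound at five concentrations. Abbreviation: GI50, concentration required for 50% inhibition of growth. TGI is the concentration that stops growth completely.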

Tests used:
Assay in all cases: inhibition of tumour cell growth, NCI panel, 48 h
[1] = system: MCF7 breast
[2] = system: CCRF-CEM leukemia
[3] = system: HOP-62 NSCLC
[4] = system: IGROV1 ovarian
[5] = system: NCI-H23 lung
[6] = system: UO-31 renal
[7] = system: MDA-MB-435
[8] = system: UACC-62 melanoma
[9] = system: NCI/ADR-RES ovarian
[10] = system: A549 NSCLC
[11] = system: NCI-H460 lung
[12] = system: HCT-116 colon
[13] = system: SK-MEL-2 melanoma
[14] = system: SNB-75 CNS
[15] = system: HT29 colon
[16] = system: RPMI-8226 leukemia
[17] = system: HCC-2998 colon
[18] = system: T-47D breast
[19] = system: OVCAR-5 ovarian
[20] = system: TK-10 renal
[21] = system: SF-539 CNS
[22] = system: SK-MEL-5 melanoma
[23] = system: SW-620 colon
[24] = system: K-562 leukemia
[25] = system: OVCAR-8 ovarian
[26] = system: SF-268 CNS
[27] = system: COLO 205 colon
[28] = system: SN12C renal
[29] = system: PC-3 prostate
[30] = system: OVCAR-4 ovarian
[31] = system: NCI-H522 lung
[32] = system: CAKI-1 renal
[33] = system: M14 melanoma
[34] = system: NCI-H226 lung
[35] = system: LOX IMVI melanoma
[36] = system: SR leukemia
[37] = system: HOP-92 NSCLC
[38] = system: MALME-3M melanoma
[39] = system: MOLT-4 leukemia
[40] = system: UACC-257 melanoma
[41] = system: SNB-19 CNS
[42] = system: U251 CNS
[43] = system: OVCAR-3 ovarian
[44] = system: KM12 colon
[45] = system: HCT-15 colon
[46] = system: ACHN renal
[47] = system: HS 578T breast
[48] = system: SK-MEL-28 melanoma
[49] = system: DU-145 prostate
[50] = system: RXF 393 renal
[51] = system: SK-OV-3 ovarian
[52] = system: 786-0 renal
[53] = system: HL-60(TB) leukemia
[54] = system: BT-549 breast
[55] = system: A498 renal
[56] = system: MDA-MB-231 breast
[57] = system: SF-295 CNS
[58] = system: EKVX NSCLC

CC[C@H](C)[C@H]1NC(=O)[C@@H](N[C@](C)(O)[C@@H](N)CC(C)C)[C@@H](C)OC(=O)[C@H](Cc2ccc(OC)cc2)N(C)C(=O)[C@@H]2CCCN2C(=O)[C@H](CC(C)C)NC(=O)[C@@H](C)C(=O)[C@H](C(C)C)OC(=O)C[C@@H]1O
GI50 [1]: 7.35 nM | TGI [1]: 166 nM | GI50 [2]: 11.3 nM | TGI [2]: 232 nM | GI50 [3]: 14.6 nM | TGI [3]: 601 nM | GI50 [4]: 13.3 nM | TGI [4]: 413 nM | GI50 [5]: 12.2 nM | TGI [5]: 146 nM | GI50 [6]: 343 nM | TGI [6]: 3310 nM | GI50 [7]: 15.1 nM | TGI [7]: 397 nM | GI50 [8]: 10.9 nM | TGI [8]: 160 nM | GI50 [9]: 2180 nM | TGI [9]: 46500 nM | GI50 [10]: 11.5 nM | TGI [10]: 470 nM | GI50 [11]: 11 nM | TGI [11]: 572 nM | GI50 [12]: 6.08 nM | TGI [12]: 50000 nM | GI50 [13]: 9.72 nM | TGI [13]: 49.9 nM | GI50 [14]: 21.5 nM | TGI [14]: 436 nM | GI50 [15]: 6.95 nM | TGI [15]: 702 nM | GI50 [16]: 34.7 nM | TGI [16]: 177 nM | GI50 [17]: 19.7 nM | TGI [17]: 361 nM | GI50 [18]: 8.97 nM | TGI [18]: 301 nM | GI50 [19]: 20.4 nM | TGI [19]: 799 nM | GI50 [20]: 39.7 nM | TGI [20]: 557 nM | GI50 [21]: 16.5 nM | TGI [21]: 185 nM | GI50 [22]: 18 nM | TGI [22]: 665 nM | GI50 [23]: 16.7 nM | TGI [23]: 6060 nM | GI50 [24]: 15.6 nM | TGI [24]: 1800 nM | GI50 [25]: 16.1 nM | TGI [25]: 355 nM | GI50 [26]: 13.2 nM | TGI [26]: 348 nM | GI50 [27]: 10.8 nM | TGI [27]: 73 nM | GI50 [28]: 11.5 nM | TGI [28]: 316 nM | GI50 [29]: 16.4 nM | TGI [29]: 208 nM | GI50 [30]: 18.9 nM | TGI [30]: 365 nM | GI50 [31]: 11.4 nM | TGI [31]: 143 nM | GI50 [32]: 241 nM | TGI [32]: 2590 nM | GI50 [33]: 21.5 nM | TGI [33]: 289 nM | GI50 [34]: 17.5 nM | TGI [34]: 501 nM | GI50 [35]: 12 nM | TGI [35]: 209 nM | GI50 [36]: 6.03 nM | TGI [36]: 42.2 nM | GI50 [37]: 26.2 nM | TGI [37]: 391 nM | GI50 [38]: 11.7 nM | TGI [38]: 133 nM | GI50 [39]: 13.3 nM | TGI [39]: 575 nM | GI50 [40]: 40.8 nM | TGI [40]: 337 nM | GI50 [41]: 13.7 nM | TGI [41]: 461 nM | GI50 [42]: 11.9 nM | TGI [42]: 188 nM | GI50 [43]: 17.8 nM | TGI [43]: 232 nM | GI50 [44]: < 10.8 nM | TGI [44]: 829 nM | GI50 [45]: 217 nM | TGI [45]: 22900 nM | GI50 [46]: 42.8 nM | TGI [46]: 2670 nM | GI50 [47]: 16.4 nM | TGI [47]: 467 nM | GI50 [48]: 11.7 nM | TGI [48]: 95.4 nM | GI50 [49]: 9.03 nM | TGI [49]: 509 nM | GI50 [50]: 19 nM | TGI [50]: 173 nM | GI50 [51]: 19.1 nM | TGI [51]: 1190 nM | GI50 [52]: 22.5 nM | TGI [52]: 2940 nM | GI50 [53]: 21.8 nM | TGI [53]: 281 nM | GI50 [54]: 19.5 nM | TGI [54]: 406 nM | GI50 [55]: 37 nM | TGI [55]: 403 nM | GI50 [56]: 26.3 nM | TGI [56]: 233 nM

CC(=O)N1c2ccccc2C23CCN(C)CC4C(C)OCC(C4CC2=O)C13 (configuration not stated)
TGI [1]: > 100000 nM | TGI [2]: > 100000 nM | TGI [4]: > 100000 nM | TGI [5]: > 100000 nM | TGI [6]: > 100000 nM | TGI [7]: > 100000 nM | TGI [8]: > 100000 nM | TGI [9]: > 100000 nM | TGI [10]: > 100000 nM | TGI [11]: > 100000 nM | TGI [12]: > 100000 nM | TGI [57]: > 100000 nM | TGI [13]: > 100000 nM | TGI [14]: > 100000 nM | TGI [15]: > 100000 nM | TGI [17]: > 100000 nM | TGI [18]: > 100000 nM | TGI [19]: > 100000 nM | TGI [20]: > 100000 nM | TGI [21]: > 100000 nM | TGI [22]: > 100000 nM | TGI [23]: > 100000 nM | TGI [24]: > 100000 nM | TGI [25]: > 100000 nM | TGI [26]: > 100000 nM | TGI [27]: > 100000 nM | TGI [28]: > 100000 nM | TGI [29]: > 100000 nM | TGI [30]: > 100000 nM | TGI [31]: > 100000 nM | TGI [32]: > 100000 nM | TGI [33]: > 100000 nM | TGI [34]: > 100000 nM | TGI [35]: > 100000 nM | TGI [36]: > 100000 nM | TGI [37]: > 100000 nM | TGI [38]: > 100000 nM | TGI [39]: > 100000 nM | TGI [40]: > 100000 nM | TGI [41]: > 100000 nM | TGI [42]: > 100000 nM | TGI [44]: > 100000 nM | TGI [45]: > 100000 nM | TGI [46]: > 100000 nM | TGI [58]: > 100000 nM | TGI [47]: > 100000 nM | TGI [48]: > 100000 nM | TGI [49]: > 100000 nM | TGI [50]: > 100000 nM | TGI [51]: > 100000 nM | TGI [52]: > 100000 nM | TGI [53]: > 100000 nM | TGI [54]: > 100000 nM | TGI [55]: > 100000 nM | TGI [56]: > 100000 nM
